{"source": "patent US11331299B2", "about": "“Medicinal use of serrulatane diterpenes” (The University of Sydney, priority 2016, dated 2022)", "assay_in_all_cases": "biochemical", "assay_type_in_all_cases": "binding", "key": {"[1]": {"molecular_target": "receptors (Bioprint panel) (Rattus norvegicus, UniProt P35439)", "conditions": "read-out: % Inhibition of Control Specific Binding"}, "[2]": {"molecular_target": "receptors (Bioprint panel) (Rattus norvegicus, UniProt P28565)", "sequence (P28565 whole entry)": "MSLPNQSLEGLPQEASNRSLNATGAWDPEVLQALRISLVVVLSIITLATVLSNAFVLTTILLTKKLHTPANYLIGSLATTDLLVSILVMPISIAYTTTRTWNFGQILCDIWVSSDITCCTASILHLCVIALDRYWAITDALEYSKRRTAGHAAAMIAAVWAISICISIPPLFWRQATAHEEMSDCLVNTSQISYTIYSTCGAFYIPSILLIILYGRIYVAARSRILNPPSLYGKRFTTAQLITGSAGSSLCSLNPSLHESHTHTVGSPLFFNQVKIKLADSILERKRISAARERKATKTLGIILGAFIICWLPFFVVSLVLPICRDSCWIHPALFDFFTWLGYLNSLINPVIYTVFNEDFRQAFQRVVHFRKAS", "conditions": "read-out: % Inhibition of Control Specific Binding"}, "[3]": {"molecular_target": "receptors (Bioprint panel) (Homo sapiens, UniProt P46098)", "sequence (P46098 24-478)": "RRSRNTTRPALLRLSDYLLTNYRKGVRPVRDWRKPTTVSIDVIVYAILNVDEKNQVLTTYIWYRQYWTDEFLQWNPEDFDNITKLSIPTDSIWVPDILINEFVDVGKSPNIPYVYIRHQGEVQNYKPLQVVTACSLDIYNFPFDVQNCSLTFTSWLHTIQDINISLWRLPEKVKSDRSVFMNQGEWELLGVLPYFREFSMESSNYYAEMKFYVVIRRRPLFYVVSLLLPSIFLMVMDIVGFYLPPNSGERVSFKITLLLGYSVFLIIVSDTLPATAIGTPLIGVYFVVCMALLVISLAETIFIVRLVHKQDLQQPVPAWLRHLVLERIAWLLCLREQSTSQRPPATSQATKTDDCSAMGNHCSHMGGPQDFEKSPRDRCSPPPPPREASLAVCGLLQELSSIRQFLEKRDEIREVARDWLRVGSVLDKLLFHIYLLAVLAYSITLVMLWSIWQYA", "conditions": "read-out: % Inhibition of Control Specific Binding"}, "[4]": {"molecular_target": "receptors (Bioprint panel) (Homo sapiens, UniProt P29274)", "conditions": "ADENOSINE A2A (h) (agonist radioligand); 10 μM; read-out: % Inhibition of Control Specific Binding"}, "[5]": {"molecular_target": "receptors (Bioprint panel) (Homo sapiens, UniProt P41143)", "sequence (P41143 whole entry)": "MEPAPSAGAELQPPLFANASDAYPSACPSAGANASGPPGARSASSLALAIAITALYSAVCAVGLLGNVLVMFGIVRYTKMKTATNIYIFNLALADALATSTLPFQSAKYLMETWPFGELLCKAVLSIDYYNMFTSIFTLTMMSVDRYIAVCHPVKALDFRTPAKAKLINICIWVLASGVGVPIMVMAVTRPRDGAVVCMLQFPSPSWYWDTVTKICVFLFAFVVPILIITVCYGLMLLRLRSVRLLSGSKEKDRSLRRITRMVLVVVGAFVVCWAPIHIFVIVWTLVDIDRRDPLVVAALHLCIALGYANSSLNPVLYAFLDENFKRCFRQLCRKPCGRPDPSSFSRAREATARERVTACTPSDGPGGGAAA", "conditions": "OPIOD & OPIOID-LIKE delta (DOP) (h) (agonist radioligand); 10 μM; read-out: % Inhibition of Control Specific Binding"}, "[6]": {"molecular_target": "receptors (Bioprint panel) (Homo sapiens, UniProt P21452)", "conditions": "NEUROKININ NK2 (h) (agonist radioligand); 10 μM; read-out: % Inhibition of Control Specific Binding"}, "[7]": {"molecular_target": "receptors (Bioprint panel) (Homo sapiens, UniProt Q9UKP6)", "conditions": "read-out: % Inhibition of Control Specific Binding"}, "[8]": {"system": "receptors (Bioprint panel)", "conditions": "10 μM"}, "[9]": {"molecular_target": "receptors (Bioprint panel) (Homo sapiens, UniProt P41597)", "conditions": "CHEMOKINES CCR2 (h) (agonist radioligand); 10 μM; read-out: % Inhibition of Control Specific Binding"}, "[10]": {"molecular_target": "receptors (Bioprint panel) (Homo sapiens, UniProt P32247)", "conditions": "BOMBESIN BB3 (h) (agonist radioligand); 10 μM; read-out: % Inhibition of Control Specific Binding"}, "[11]": {"molecular_target": "receptors (Bioprint panel) (Homo sapiens, UniProt P21554)", "conditions": "CANNABINOID CB1 (h) (agonist radioligand); 10 μM; read-out: % Inhibition of Control Specific Binding"}, "[12]": {"molecular_target": "receptors (Bioprint panel) (Homo sapiens, UniProt P32241)", "sequence (P32241 31-457)": "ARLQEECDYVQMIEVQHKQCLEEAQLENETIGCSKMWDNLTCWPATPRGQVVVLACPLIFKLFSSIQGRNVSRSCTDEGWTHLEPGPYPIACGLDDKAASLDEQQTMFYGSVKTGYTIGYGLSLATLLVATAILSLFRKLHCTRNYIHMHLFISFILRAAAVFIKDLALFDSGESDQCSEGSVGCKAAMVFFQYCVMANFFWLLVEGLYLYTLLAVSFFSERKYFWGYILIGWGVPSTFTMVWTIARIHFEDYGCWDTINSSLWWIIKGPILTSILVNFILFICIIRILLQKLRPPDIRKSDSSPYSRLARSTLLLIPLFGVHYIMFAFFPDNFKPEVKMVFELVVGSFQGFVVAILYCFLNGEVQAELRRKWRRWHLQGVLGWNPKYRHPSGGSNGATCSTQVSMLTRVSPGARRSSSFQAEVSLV", "conditions": "[…] VPAC1 (VIP1) (h) (agonist radioligand); 10 μM; read-out: % Inhibition of Control Specific Binding"}, "[13]": {"molecular_target": "receptors (Bioprint panel) (Homo sapiens, UniProt P35348)", "sequence (P35348 whole entry)": "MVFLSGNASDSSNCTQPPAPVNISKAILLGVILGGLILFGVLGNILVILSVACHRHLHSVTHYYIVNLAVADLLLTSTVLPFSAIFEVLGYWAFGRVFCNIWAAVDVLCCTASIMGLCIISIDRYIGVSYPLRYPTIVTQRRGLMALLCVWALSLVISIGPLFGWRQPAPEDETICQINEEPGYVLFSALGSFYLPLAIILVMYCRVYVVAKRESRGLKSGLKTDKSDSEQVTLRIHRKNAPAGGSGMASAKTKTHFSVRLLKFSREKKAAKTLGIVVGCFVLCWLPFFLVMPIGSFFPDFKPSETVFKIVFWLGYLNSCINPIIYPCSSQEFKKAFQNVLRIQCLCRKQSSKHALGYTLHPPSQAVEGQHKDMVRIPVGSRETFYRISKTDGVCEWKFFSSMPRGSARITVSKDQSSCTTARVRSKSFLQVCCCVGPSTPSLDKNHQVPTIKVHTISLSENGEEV", "conditions": "[…] alpha 1A (h) (antagonist radioligand); 10 μM; read-out: % Inhibition of Control Specific Binding"}, "[14]": {"molecular_target": "receptors (Bioprint panel) (Homo sapiens, UniProt P50052)", "conditions": "A[…] AT2 (h) (agonist radioligand); 10 μM; read-out: % Inhibition of Control Specific Binding"}, "[15]": {"molecular_target": "receptors (Bioprint panel) (Homo sapiens, UniProt Q9Y271)", "conditions": "read-out: % Inhibition of Control Specific Binding"}, "[16]": {"molecular_target": "receptors (Bioprint panel) (Homo sapiens, UniProt Q9Y5N1)", "conditions": "HISTAMINE H3 (h) (agonist radioligand); 10 μM; read-out: % Inhibition of Control Specific Binding"}, "[17]": {"molecular_target": "receptors (Bioprint panel) (Homo sapiens, UniProt P32239)", "sequence (P32239 whole entry)": "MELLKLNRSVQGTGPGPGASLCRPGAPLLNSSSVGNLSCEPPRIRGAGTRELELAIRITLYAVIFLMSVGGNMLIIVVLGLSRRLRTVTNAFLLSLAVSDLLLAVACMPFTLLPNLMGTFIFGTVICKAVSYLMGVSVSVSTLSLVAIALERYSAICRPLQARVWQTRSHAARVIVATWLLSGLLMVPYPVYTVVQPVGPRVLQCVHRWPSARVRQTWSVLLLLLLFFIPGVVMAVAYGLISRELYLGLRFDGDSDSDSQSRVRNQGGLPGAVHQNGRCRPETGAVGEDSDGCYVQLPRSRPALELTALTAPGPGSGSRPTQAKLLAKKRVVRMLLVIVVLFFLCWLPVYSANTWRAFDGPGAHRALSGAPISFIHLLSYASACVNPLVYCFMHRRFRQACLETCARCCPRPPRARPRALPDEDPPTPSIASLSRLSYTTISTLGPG", "conditions": "CHOLECYSTOKININ CCK2 (CCKB) (h) (agonist radioligand); 10 μM; read-out: % Inhibition of Control Specific Binding"}, "[18]": {"molecular_target": "receptors (Bioprint panel) (Homo sapiens, UniProt P41146)", "sequence (P41146 whole entry)": "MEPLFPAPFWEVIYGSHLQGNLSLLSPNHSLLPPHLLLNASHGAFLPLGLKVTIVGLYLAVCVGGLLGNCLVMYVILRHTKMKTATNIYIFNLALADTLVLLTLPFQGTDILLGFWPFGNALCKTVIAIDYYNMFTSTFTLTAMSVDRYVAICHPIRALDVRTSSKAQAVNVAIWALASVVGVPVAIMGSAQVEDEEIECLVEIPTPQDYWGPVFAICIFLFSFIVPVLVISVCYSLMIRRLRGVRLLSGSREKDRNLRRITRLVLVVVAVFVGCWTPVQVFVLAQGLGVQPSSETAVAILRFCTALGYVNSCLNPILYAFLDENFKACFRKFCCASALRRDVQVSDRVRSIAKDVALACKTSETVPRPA", "conditions": "OPIOD & OPIOID-LIKE NOP (ORL1) (h) (agonist radioligand); 10 μM; read-out: % Inhibition of Control Specific Binding"}, "[19]": {"molecular_target": "receptors (Bioprint panel) (Homo sapiens, UniProt P30542)", "conditions": "ADENOSINE A1 (h) (agonist radioligand); 10 μM; read-out: % Inhibition of Control Specific Binding"}, "[20]": {"molecular_target": "receptors (Bioprint panel) (Homo sapiens, UniProt P28223)", "conditions": "read-out: % Inhibition of Control Specific Binding"}, "[21]": {"molecular_target": "receptors (Bioprint panel) (Homo sapiens, UniProt P14416)", "sequence (P14416 other isoform, or with tags, fused parts or gaps)": "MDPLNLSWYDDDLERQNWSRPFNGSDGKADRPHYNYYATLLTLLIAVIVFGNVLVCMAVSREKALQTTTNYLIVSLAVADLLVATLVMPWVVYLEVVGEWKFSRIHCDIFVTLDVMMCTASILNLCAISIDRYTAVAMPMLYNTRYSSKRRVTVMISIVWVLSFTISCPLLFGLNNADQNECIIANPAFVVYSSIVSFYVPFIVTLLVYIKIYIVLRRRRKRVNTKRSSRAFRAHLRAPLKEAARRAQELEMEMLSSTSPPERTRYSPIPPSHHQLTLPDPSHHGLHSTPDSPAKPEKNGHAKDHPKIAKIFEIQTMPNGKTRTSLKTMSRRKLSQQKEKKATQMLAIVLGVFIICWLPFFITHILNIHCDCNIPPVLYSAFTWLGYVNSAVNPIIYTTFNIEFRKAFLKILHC", "conditions": "DOPAMINE D2S (h) (agonist radioligand); 10 μM; read-out: % Inhibition of Control Specific Binding"}, "[22]": {"molecular_target": "receptors (Bioprint panel) (Homo sapiens, UniProt P43119)", "sequence (P43119 whole entry)": "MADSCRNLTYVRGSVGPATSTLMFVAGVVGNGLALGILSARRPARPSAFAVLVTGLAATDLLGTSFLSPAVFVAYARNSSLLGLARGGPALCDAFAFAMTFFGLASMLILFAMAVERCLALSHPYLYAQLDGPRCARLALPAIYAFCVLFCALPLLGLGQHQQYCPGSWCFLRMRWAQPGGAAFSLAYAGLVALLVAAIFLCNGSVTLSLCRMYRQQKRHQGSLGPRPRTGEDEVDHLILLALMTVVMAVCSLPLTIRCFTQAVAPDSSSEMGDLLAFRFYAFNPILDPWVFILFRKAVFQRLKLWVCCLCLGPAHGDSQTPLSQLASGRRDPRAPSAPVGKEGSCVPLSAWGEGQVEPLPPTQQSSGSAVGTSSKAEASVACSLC", "conditions": "[…] (PGI2) (h) (agonist radioligand); 10 μM; read-out: % Inhibition of Control Specific Binding"}, "[23]": {"molecular_target": "receptors (Bioprint panel) (Homo sapiens, UniProt P35414)", "sequence (P35414 whole entry)": "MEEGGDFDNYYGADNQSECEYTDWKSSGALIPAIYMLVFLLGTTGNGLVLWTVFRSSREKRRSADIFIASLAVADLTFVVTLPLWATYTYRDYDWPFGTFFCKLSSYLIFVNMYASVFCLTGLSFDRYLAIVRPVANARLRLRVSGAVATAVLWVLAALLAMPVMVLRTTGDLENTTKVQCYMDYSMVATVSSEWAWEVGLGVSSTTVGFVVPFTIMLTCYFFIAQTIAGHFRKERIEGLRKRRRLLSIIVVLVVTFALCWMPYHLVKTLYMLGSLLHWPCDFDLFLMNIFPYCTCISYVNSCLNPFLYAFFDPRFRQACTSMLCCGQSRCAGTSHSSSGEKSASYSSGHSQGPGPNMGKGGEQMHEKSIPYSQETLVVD", "conditions": "APJ (apelin) (h) (agonist radioligand); 10 μM; read-out: % Inhibition of Control Specific Binding"}, "[24]": {"molecular_target": "receptors (Bioprint panel) (Homo sapiens, UniProt P37288)", "sequence (P37288 whole entry)": "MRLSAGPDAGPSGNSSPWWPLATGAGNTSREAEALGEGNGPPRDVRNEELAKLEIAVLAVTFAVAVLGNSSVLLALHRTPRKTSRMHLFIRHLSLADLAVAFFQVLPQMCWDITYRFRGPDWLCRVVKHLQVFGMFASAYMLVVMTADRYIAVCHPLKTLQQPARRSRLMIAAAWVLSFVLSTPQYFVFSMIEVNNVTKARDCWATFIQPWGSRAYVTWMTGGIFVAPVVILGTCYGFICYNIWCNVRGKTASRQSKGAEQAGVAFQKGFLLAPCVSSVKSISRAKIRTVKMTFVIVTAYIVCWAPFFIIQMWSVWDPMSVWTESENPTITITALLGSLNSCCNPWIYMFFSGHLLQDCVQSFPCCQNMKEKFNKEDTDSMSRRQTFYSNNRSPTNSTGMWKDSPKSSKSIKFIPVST", "conditions": "VASOPRESSIN V1a (h) (agonist radioligand); 10 μM; read-out: % Inhibition of Control Specific Binding"}, "[25]": {"molecular_target": "receptors (Bioprint panel) (Homo sapiens, UniProt P24530)", "sequence (P24530 27-442)": "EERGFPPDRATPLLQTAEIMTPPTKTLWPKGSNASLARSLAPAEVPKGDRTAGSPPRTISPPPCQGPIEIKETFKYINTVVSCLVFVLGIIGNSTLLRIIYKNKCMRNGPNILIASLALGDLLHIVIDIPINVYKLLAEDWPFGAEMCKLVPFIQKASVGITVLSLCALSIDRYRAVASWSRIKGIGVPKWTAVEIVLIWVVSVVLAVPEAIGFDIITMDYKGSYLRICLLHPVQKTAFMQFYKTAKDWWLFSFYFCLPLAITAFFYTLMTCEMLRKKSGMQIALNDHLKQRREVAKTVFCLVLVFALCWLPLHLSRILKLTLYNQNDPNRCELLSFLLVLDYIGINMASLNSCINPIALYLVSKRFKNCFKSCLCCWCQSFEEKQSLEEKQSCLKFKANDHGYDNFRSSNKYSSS", "conditions": "[…] (h) (agonist radioligand); 10 μM; read-out: % Inhibition of Control Specific Binding"}}, "data": [{"smiles": "CC(C)=CCC[C@H](CO)[C@@H]1CC[C@@H](C)c2c1cc(C)c(O)c2O", "note": "[Compound 1, 7,8,18-trihydroxyserrulat-14-ene]", "values": [{"measurement": "inhibition at 10 µM", "setting": "[1]", "result": 4, "unit": "%"}, {"measurement": "inhibition at 10 µM", "setting": "[2]", "result": 18, "unit": "%"}, {"measurement": "inhibition at 10 µM", "setting": "[3]", "result": -2, "unit": "%"}, {"measurement": "inhibition at 10 µM", "setting": "[4]", "result": 18, "unit": "%"}, {"measurement": "inhibition at 10 µM", "setting": "[5]", "result": 62, "unit": "%"}, {"measurement": "inhibition at 10 µM", "setting": "[6]", "result": 52, "unit": "%"}, {"measurement": "inhibition at 10 µM", "setting": "[7]", "result": 46, "unit": "%"}, {"measurement": "% Inhibition of Control Specific Binding", "setting": "[8]", "result": 11, "unit": "%"}, {"measurement": "% Inhibition of Control Specific Binding", "setting": "[8]; CYTOKINES TNF-alpha (h) (agonist radioligand)", "result": "−23", "unit": "%"}, {"measurement": "% Inhibition of Control Specific Binding", "setting": "[8]; Ca2+ channel (L, dihydropyridine site) (antagonist radioligand)", "result": 55, "unit": "%"}, {"measurement": "% Inhibition of Control Specific Binding", "setting": "[8]; Ca2+ channel (L, diltiazem site) (benzothiazepines) (antagonist radioligand)", "result": "−30", "unit": "%"}, {"measurement": "% Inhibition of Control Specific Binding", "setting": "[8]; Ca2+ channel (L, verapamil site) (phenylalkylamine) (antagonist radioligand)", "result": "−4", "unit": "%"}, {"measurement": "% Inhibition of Control Specific Binding", "setting": "[8]; Cl- channel (GABA-gated) (antagonist radioligand)", "result": 42, "unit": "%"}, {"measurement": "% Inhibition of Control Specific Binding", "setting": "[8]; GABA CHANNELS BZD (central) (agonist radioligand)", "result": "−31", "unit": "%"}, {"measurement": "% Inhibition of Control Specific Binding", "setting": "[8]; GABA transporter (antagonist radioligand)", "result": "−10", "unit": "%"}, {"measurement": "% Inhibition of Control Specific Binding", "setting": "[8]; GLUTAMATE CHANNELS AMPA (agonist radioligand)", "result": 4, "unit": "%"}, {"measurement": "% Inhibition of Control Specific Binding", "setting": "[8]; GLUTAMATE CHANNELS NMDA (antagonist radioligand)", "result": 9, "unit": "%"}, {"measurement": "% Inhibition of Control Specific Binding", "setting": "[8]; GLUTAMATE CHANNELS PCP (antagonist radioligand)", "result": "−11", "unit": "%"}, {"measurement": "% Inhibition of Control Specific Binding", "setting": "[8]; GLUTAMATE CHANNELS kainate (agonist radioligand)", "result": 15, "unit": "%"}, {"measurement": "% Inhibition of Control Specific Binding", "setting": "[8]; Na+ channel (site 2) (antagonist radioligand)", "result": 48, "unit": "%"}, {"measurement": "% Inhibition of Control Specific Binding", "setting": "[8]; SKCa channel (antagonist radioligand)", "result": 14, "unit": "%"}, {"measurement": "% Inhibition of Control Specific Binding", "setting": "[8]; Thyroid Hormone", "result": 9, "unit": "%"}, {"measurement": "inhibition at 10 µM", "setting": "[9]", "result": 48, "unit": "%"}, {"measurement": "inhibition at 10 µM", "setting": "[10]", "result": 26, "unit": "%"}, {"measurement": "inhibition at 10 µM", "setting": "[11]", "result": 46, "unit": "%"}, {"measurement": "inhibition at 10 µM", "setting": "[12]", "result": -9, "unit": "%"}, {"measurement": "inhibition at 10 µM", "setting": "[13]", "result": 17, "unit": "%"}, {"measurement": "inhibition at 10 µM", "setting": "[14]", "result": 54, "unit": "%"}, {"measurement": "inhibition at 10 µM", "setting": "[15]", "result": 10, "unit": "%"}, {"measurement": "inhibition at 10 µM", "setting": "[16]", "result": 10, "unit": "%"}, {"measurement": "inhibition at 10 µM", "setting": "[17]", "result": 6, "unit": "%"}, {"measurement": "inhibition at 10 µM", "setting": "[18]", "result": -4, "unit": "%"}, {"measurement": "inhibition at 10 µM", "setting": "[19]", "result": 10, "unit": "%"}, {"measurement": "inhibition at 10 µM", "setting": "[20]", "result": 9, "unit": "%"}, {"measurement": "inhibition at 10 µM", "setting": "[21]", "result": 59, "unit": "%"}, {"measurement": "inhibition at 10 µM", "setting": "[22]", "result": 16, "unit": "%"}, {"measurement": "inhibition at 10 µM", "setting": "[23]", "result": 24, "unit": "%"}, {"measurement": "inhibition at 10 µM", "setting": "[24]", "result": 12, "unit": "%"}, {"measurement": "inhibition at 10 µM", "setting": "[25]", "result": 40, "unit": "%"}]}]}
